# Measured values: ChEMBL document CHEMBL4390652, “Design, biological evaluation and X-ray crystallography of nanomolar multifunctional ligands targeting simultaneously acetylcholinesterase and glycogen synthase kinase-3” (Eur J Med Chem, 2019)
# Assays:
# [1] = biological target: Citron Rho-interacting kinase (Homo sapiens) (UniProt O14578); test: Binding affinity to wild-type human partial length CIT (M68 to E432 residues) expressed in bacterial expression system assessed as residual binding level at 10 uM by Kinomescan method relative to control
# Chain of Citron Rho-interacting kinase (Homo sapiens) (O14578 whole entry, the tested form may be a part): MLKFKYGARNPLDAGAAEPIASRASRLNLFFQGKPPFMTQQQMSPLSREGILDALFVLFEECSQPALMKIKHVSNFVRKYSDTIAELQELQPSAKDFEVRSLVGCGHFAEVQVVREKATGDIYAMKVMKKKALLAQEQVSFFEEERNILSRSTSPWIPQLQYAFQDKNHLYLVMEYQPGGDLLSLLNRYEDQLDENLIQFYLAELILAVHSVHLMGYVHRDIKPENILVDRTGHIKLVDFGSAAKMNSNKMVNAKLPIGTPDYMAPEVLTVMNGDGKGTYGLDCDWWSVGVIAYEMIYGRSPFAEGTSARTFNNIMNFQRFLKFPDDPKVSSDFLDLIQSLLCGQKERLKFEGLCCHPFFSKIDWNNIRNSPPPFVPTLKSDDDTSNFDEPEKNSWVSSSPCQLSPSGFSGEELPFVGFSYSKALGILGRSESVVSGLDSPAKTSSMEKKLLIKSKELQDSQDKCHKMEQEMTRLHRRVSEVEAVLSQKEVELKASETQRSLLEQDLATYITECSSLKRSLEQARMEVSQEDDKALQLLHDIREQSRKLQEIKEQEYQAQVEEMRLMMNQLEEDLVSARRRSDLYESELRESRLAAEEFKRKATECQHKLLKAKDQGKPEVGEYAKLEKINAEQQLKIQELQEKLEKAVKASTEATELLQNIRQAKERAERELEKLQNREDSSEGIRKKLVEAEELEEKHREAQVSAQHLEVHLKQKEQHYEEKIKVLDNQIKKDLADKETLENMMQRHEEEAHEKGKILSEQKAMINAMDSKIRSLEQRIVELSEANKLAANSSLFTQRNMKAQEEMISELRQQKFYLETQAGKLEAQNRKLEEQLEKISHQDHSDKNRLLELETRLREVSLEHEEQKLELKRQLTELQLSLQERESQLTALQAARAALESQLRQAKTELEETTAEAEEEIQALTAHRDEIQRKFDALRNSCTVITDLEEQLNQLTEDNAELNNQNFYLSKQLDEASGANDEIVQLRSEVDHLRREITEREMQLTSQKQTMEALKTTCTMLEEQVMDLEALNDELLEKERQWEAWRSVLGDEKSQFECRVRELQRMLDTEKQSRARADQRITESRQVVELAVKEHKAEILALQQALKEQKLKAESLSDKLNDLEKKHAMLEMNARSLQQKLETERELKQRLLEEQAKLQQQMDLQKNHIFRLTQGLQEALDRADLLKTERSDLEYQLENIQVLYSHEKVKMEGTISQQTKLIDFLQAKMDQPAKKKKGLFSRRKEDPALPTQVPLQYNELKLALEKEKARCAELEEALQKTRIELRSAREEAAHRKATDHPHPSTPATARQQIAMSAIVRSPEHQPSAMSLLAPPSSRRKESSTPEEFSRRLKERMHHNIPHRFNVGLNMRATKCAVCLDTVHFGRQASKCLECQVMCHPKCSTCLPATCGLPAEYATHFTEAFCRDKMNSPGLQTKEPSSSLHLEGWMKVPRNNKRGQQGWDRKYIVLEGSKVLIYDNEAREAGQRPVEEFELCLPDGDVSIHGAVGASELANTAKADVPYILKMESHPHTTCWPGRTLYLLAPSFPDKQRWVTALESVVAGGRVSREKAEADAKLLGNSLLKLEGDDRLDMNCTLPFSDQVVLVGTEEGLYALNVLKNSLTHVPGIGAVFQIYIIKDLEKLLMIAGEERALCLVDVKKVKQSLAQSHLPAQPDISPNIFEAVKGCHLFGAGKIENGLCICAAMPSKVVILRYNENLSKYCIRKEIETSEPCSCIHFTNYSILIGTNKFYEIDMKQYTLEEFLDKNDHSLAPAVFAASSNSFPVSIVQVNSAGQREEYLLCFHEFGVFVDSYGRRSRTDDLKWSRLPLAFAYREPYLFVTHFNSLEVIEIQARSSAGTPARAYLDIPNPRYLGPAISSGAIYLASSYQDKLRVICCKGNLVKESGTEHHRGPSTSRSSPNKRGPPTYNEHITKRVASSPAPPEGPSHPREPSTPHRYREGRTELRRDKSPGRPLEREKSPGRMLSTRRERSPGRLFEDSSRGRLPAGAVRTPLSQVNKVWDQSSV
# [2] = biological target: Calcium/calmodulin-dependent protein kinase kinase 1 (Homo sapiens) (UniProt Q8N5S9); test: Binding affinity to wild-type human partial length CAMKK1 (R65 to E414 residues) expressed in bacterial expression system assessed as residual binding level at 10 uM by Kinomescan method relative to control
# [3] = biological target: Receptor tyrosine-protein kinase erbB-4 (Homo sapiens) (UniProt Q15303); test: Binding affinity to wild-type human partial length ERBB4 (L690 to K994 residues) expressed in bacterial expression system assessed as residual binding level at 10 uM by Kinomescan method relative to control
# [4] = biological target: Activin receptor type-2B (Homo sapiens) (UniProt Q13705); test: Binding affinity to wild-type human ACVR2B (H169 to D504 residues) expressed in bacterial expression system assessed as residual binding level at 10 uM by Kinomescan method relative to control
# [5] = biological target: Serine/threonine-protein kinase 17A (Homo sapiens) (UniProt Q9UEE5); test: Binding affinity to wild-type human partial length DRAK1 (R32 to E363 residues) expressed in bacterial expression system assessed as residual binding level at 10 uM by Kinomescan method relative to control
# [6] = biological target: Tyrosine-protein kinase ABL1 (Homo sapiens) (UniProt P00519); test: Binding affinity to wild-type human phosphorylated ABL1 (S229 to K512 residues) expressed in mammalian expression system assessed as residual binding level at 10 uM by Kinomescan method relative to control
# Chain of Tyrosine-protein kinase ABL1 (Homo sapiens) (P00519 whole entry, the tested form may be a part): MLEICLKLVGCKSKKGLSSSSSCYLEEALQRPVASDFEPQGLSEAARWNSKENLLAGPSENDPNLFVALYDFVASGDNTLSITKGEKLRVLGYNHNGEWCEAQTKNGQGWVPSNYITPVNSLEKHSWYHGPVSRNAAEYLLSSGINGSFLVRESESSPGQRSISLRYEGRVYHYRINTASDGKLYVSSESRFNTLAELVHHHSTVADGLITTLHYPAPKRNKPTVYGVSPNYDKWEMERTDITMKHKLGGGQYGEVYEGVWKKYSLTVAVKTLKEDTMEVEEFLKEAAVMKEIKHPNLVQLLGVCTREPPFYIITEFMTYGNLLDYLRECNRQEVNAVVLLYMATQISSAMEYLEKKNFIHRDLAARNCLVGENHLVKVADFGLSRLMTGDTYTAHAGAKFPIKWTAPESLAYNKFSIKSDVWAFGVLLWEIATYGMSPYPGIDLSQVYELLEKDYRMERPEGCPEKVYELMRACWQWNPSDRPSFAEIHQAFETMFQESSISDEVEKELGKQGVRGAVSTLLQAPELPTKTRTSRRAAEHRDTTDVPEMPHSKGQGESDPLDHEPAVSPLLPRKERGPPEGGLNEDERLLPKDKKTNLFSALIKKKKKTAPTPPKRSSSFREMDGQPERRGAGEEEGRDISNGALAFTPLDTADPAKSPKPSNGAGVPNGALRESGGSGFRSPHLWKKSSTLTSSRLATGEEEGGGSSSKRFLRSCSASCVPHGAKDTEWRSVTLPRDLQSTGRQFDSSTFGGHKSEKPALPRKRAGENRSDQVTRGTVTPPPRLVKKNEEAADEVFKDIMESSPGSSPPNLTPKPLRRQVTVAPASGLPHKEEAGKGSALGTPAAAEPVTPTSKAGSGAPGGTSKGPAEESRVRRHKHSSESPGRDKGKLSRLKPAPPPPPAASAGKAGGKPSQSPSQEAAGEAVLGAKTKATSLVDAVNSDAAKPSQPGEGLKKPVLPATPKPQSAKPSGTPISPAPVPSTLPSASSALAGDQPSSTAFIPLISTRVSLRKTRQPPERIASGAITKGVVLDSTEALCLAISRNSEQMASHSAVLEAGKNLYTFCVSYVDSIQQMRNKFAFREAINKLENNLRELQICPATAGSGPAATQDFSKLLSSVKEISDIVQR
# [7] = biological target: Serine/threonine-protein kinase BRSK1 (Homo sapiens) (UniProt Q8TDC3); test: Binding affinity to wild-type human partial length BRSK1 (M1 to E754 residues) expressed in bacterial expression system assessed as residual binding level at 10 uM by Kinomescan method relative to control
# Chain of Serine/threonine-protein kinase BRSK1 (Homo sapiens) (Q8TDC3 whole entry, the tested form may be a part): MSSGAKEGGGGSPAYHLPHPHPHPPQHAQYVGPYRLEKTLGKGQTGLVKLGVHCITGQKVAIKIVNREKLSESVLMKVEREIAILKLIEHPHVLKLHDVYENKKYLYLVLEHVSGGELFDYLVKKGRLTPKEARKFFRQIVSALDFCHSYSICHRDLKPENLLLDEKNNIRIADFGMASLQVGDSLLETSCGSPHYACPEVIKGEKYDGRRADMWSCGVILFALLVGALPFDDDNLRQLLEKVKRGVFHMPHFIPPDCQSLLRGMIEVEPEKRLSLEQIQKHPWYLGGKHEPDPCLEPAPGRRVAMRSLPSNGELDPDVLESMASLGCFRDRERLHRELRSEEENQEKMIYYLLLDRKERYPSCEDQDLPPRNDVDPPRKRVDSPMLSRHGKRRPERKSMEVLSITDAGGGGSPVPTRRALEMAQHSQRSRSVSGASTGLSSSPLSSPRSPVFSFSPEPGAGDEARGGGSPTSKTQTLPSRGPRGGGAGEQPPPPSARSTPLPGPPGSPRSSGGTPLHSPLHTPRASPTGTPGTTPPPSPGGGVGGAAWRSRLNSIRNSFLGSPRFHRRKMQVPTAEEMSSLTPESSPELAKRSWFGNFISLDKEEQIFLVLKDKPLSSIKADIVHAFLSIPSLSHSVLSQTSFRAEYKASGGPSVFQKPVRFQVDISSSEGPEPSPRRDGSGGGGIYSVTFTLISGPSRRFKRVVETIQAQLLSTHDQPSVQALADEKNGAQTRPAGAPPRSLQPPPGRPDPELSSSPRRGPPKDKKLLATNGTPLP
# [8] = biological target: Macrophage colony-stimulating factor 1 receptor (Homo sapiens) (UniProt P07333); test: Binding affinity to wild-type human partial length CSF1R (I564 to S939 residues) expressed in bacterial expression system assessed as residual binding level at 10 uM by Kinomescan method relative to control
# [9] = biological target: Vascular endothelial growth factor receptor 2 (Homo sapiens) (UniProt P35968); test: Binding affinity to wild-type human partial length VEGFR2 (R787 to P1253 residues) expressed in mammalian expression system assessed as residual binding level at 10 uM by Kinomescan method relative to control
# [10] = biological target: Eukaryotic translation initiation factor 2-alpha kinase 1 (Homo sapiens) (UniProt Q9BQI3); test: Binding affinity to wild-type human partial length EIF2AK1 (Q147 to E603 residues) expressed in mammalian expression system assessed as residual binding level at 10 uM by Kinomescan method relative to control
# [11] = biological target: Mitogen-activated protein kinase kinase kinase 13 (Homo sapiens) (UniProt O43283); test: Binding affinity to wild-type human full length LZK (M1 to W966 residues) expressed in mammalian expression system assessed as residual binding level at 10 uM by Kinomescan method relative to control
# [12] = biological target: Mitogen-activated protein kinase kinase kinase 14 (Homo sapiens) (UniProt Q99558); test: Binding affinity to wild-type human partial length NIK (L318 to P947 residues) expressed in mammalian expression system assessed as residual binding level at 10 uM by Kinomescan method relative to control
# Chain of Mitogen-activated protein kinase kinase kinase 14 (Homo sapiens) (Q99558 whole entry, looked up, the tested form may be a part): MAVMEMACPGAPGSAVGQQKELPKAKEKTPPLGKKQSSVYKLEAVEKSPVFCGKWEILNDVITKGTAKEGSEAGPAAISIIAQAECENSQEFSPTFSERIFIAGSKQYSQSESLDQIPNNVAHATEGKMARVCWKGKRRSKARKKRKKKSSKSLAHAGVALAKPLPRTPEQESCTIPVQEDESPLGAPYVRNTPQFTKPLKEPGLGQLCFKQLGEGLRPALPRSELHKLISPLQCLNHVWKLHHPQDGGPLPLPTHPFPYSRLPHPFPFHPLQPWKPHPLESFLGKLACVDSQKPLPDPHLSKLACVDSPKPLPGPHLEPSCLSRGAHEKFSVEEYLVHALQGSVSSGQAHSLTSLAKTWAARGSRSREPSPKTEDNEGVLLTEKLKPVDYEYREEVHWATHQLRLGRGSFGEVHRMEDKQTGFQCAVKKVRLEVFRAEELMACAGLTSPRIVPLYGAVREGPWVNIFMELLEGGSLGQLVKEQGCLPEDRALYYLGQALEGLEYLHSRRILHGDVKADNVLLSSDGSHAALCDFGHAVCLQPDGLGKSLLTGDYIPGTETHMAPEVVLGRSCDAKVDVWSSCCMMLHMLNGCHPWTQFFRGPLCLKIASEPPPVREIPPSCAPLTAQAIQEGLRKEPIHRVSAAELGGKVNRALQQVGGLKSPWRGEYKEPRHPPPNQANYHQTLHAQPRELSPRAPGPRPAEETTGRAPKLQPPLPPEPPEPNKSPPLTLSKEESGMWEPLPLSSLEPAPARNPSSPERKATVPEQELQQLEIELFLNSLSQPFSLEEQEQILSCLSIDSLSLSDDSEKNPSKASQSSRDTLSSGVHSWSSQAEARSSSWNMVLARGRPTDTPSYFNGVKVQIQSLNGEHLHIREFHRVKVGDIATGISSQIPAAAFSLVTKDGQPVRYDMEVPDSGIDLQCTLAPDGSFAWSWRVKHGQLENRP
# [13] = biological target: Serine/threonine-protein kinase RIO2 (Homo sapiens) (UniProt Q9BVS4); test: Binding affinity to wild-type human partial length RIOK2 (M1 to D313 residues) expressed in mammalian expression system assessed as residual binding level at 10 uM by Kinomescan method relative to control
# [14] = biological target: RAC-beta serine/threonine-protein kinase (Homo sapiens) (UniProt P31751); test: Binding affinity to wild-type human partial length AKT2 expressed in bacterial expression system assessed as residual binding level at 10 uM by Kinomescan method relative to control
# [15] = tested on: Phosphatidylinositol 4,5-bisphosphate 3-kinase catalytic subunit alpha isoform (Homo sapiens), P42336 [E545A]; test: Binding affinity to human partial length PIK3CA E545A mutant (R108 to N1068 residues) expressed in mammalian expression system assessed as residual binding level at 10 uM by Kinomescan method relative to control
# [16] = biological target: Ankyrin repeat and protein kinase domain-containing protein 1 (Homo sapiens) (UniProt Q8NFD2); test: Binding affinity to wild-type human partial length ANKK1 (M1 to A305 residues) expressed in mammalian expression system assessed as residual binding level at 10 uM by Kinomescan method relative to control
# [17] = biological target: Cyclin-dependent kinase 5/CDK5 activator 1 (Homo sapiens, UniProt Q00535); type: protein-complex assay
# Description: Inhibition of human recombinant CDK5/p25 using histone H1 as substrate in presence of [gamma-33P]ATP incubated for 30 mins by liquid scintillation counting assay
# [18] = biological target: Serine/threonine-protein kinase 26 (Homo sapiens) (UniProt Q9P289); test: Binding affinity to wild-type human full length MST4 (M1 to P416 residues) expressed in mammalian expression system assessed as residual binding level at 10 uM by Kinomescan method relative to control
# [19] = biological target: Serine/threonine-protein kinase 38-like (Homo sapiens) (UniProt Q9Y2H1); test: Binding affinity to wild-type human partial length NDR2 (N34 to E447 residues) expressed in bacterial expression system assessed as residual binding level at 10 uM by Kinomescan method relative to control
# [20] = tested on: Phosphatidylinositol 4,5-bisphosphate 3-kinase catalytic subunit alpha isoform (Homo sapiens), P42336 [M1043I]; test: Binding affinity to human partial length PIK3CA M1043I mutant (R108 to N1068 residues) expressed in mammalian expression system assessed as residual binding level at 10 uM by Kinomescan method relative to control
# [21] = tested on: Receptor-type tyrosine-protein kinase FLT3 (Homo sapiens), P36888 [K663Q]; test: Binding affinity to human partial length FLT3 K663Q mutant (V592 to Y969 residues) expressed in bacterial expression system assessed as residual binding level at 10 uM by Kinomescan method relative to control
# [22] = biological target: Phosphatidylinositol 4-kinase beta (Homo sapiens) (UniProt Q9UBF8); test: Binding affinity to wild-type human full length PIK4CB (M1 to M828 residues) expressed in mammalian expression system assessed as residual binding level at 10 uM by Kinomescan method relative to control
# [23] = biological target: Ephrin type-B receptor 1 (Homo sapiens) (UniProt P54762); test: Binding affinity to wild-type human partial length EPHB1 (P589 to T911 residues) expressed in bacterial expression system assessed as residual binding level at 10 uM by Kinomescan method relative to control
# [24] = biological target: 1-phosphatidylinositol 3-phosphate 5-kinase (Homo sapiens) (UniProt Q9Y2I7); test: Binding affinity to wild-type human partial length PIKFYVE (F1512 to C2098 residues) expressed in mammalian expression system assessed as residual binding level at 10 uM by Kinomescan method relative to control
# [25] = biological target: Focal adhesion kinase 1 (Homo sapiens) (UniProt Q05397); test: Binding affinity to wild-type human partial length FAK (D402 to R696 residues) expressed in bacterial expression system assessed as residual binding level at 10 uM by Kinomescan method relative to control
smiles,measurement,setting,value
O=C(Nc1cc(-c2cn(CCNc3c4c(nc5ccccc35)CCCC4)nn2)ccn1)Nc1cccc2c1C1CCCCN1C2=O (racemic),Activity,[1],0.95%
same,Activity,[2],23%
same,Activity,[3],87%
same,Activity,[4],100%
same,Activity,[5],0.3%
same,Activity,[6],0.6%
same,Activity,[7],66%
same,Activity,[8],0.2%
same,Activity,[9],9.1%
same,Activity,[10],100%
same,Activity,[11],13%
same,Activity,[12],28%
same,Activity,[13],22%
same,Activity,[14],80%
same,Activity,[15],72%
same,Activity,[16],93%
same,IC50,[17],800 nM
same,Activity,[18],62%
same,Activity,[19],99%
same,Activity,[20],100%
same,Activity,[21],0.8%
same,Activity,[22],28%
same,Activity,[23],67%
same,Activity,[24],15%
same,Activity,[25],87%
